Source: US8304447B2, “2-acylaminopropoanol-type glucosylceramide synthase inhibitors” (Genzyme Corporation, priority 2007, dated 2012)

Tested on: GM3
Assay: GM3 Elisa assay
Type: cell-based
Settings: Table 3 (IC 50 Values); B16-FO cells; read-out: IC50_uM_Mean
How it was run: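 Murine B16-FO melanoma cells attached 6 h on collagen, then exposed to compounds for 2 days at 37 °C. After formaldehyde fixation, cell-surface GM3 (NeuAc) was detected by anti-GM3 IgM and peroxidase anti-mouse IgM with Quantablu fluorescence (Ex 325/Em 420).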

Row | IC50 | SMILES
1 | 100 to 1000 nM | CCCCCCCCCCCCCC(=O)N[C@H](CN(C)C(C)C)[C@H](O)c1ccc2c(c1)OCCO2 [Compound 684]
2 | 3000 to 10000 nM | CCCCCCCCCCCCCCCC(=O)N[C@H](CN(C)C1CCCC1)[C@@H](O)c1ccc2c(c1)OCCO2 [Compound 685]
3 | 3000 to 10000 nM | CCCCCCCC(=O)N[C@H](CCN1CCOCC1)[C@H](O)c1ccc2c(c1)OCCO2 [Compound 686]
4 | 3000 to 10000 nM | CCCCCCCC(=O)N[C@H](CCN1CCCC1)[C@H](O)c1ccc2c(c1)OCCO2 [Compound 687]
5 | 3000 to 10000 nM | COc1ccc(C(=O)CCCCCC(=O)N[C@H](CCN2CCCC2)[C@H](O)c2ccc3c(c2)OCCO3)cc1 [Compound 688]
6 | 3000 to 10000 nM | O=C(CCC(=O)N[C@H](CN1CCCC1)[C@H](O)c1ccc2c(c1)OCCO2)NC1CCCCC1 [Compound 689]
7 | ≤ 100 nM | CC(C)Oc1ccc(C(=O)NCCCCCC(=O)N[C@H](CN2CCCC2)[C@H](O)c2ccc3c(c2)OCCO3)cc1 [Compound 690]
8 | 3000 to 10000 nM | O=C(CCCNC(=O)NC1CCCCC1)N[C@H](CN1CCCC1)[C@H](O)c1ccc2c(c1)OCCO2 [Compound 691]
9 | 100 to 1000 nM | O=C(CCOc1ccnc2ccccc12)N[C@H](CN1CCCC1)[C@H](O)c1ccc2c(c1)OCCO2 [Compound 692]
10 | ≤ 100 nM | COc1ccc(C(=O)CCCCCC(=O)N[C@H](CN2CCCC2)[C@H](O)c2ccc(-c3ccccc3)cc2)cc1 [Compound 693]
11 | 100 to 1000 nM | CCCCCCCC(=O)N[C@H](CN1CCCC1)[C@H](O)c1ccc(-c2ccccc2)cc1 [Compound 697]
12 | 100 to 1000 nM | COc1ccc(C(=O)CCCCC(=O)N[C@H](CN2CCCC2)[C@H](O)c2ccccc2OC)cc1 [Compound 698]
13 | ≤ 100 nM | COc1ccc(C(=O)CCCCCC(=O)N[C@H](CN2CCCC2)[C@H](O)c2ccccc2OC)cc1 [Compound 699]
14 | ≤ 100 nM | CCCCCCCC(=O)N[C@H](CN1CCCC1)[C@H](O)c1ccc(OCc2ccccc2)cc1 [Compound 703]
15 | ≤ 100 nM | COc1ccc(C(=O)CCCCCC(=O)N[C@H](CN2CCCC2)[C@H](O)c2ccc(OCc3ccccc3)cc2)cc1 [Compound 704]
16 | ≤ 100 nM | COc1ccc(C(=O)CCCCCC(=O)N[C@H](CN2CCCC2)[C@H](O)c2ccc(OC)c(Cl)c2)cc1 [Compound 707]
17 | ≤ 100 nM | CCCCCCCCC(=O)N[C@H](CN1CCCC1)[C@H](O)c1ccc(OC)c(Cl)c1 [Compound 708]

Row | IC50 | SMILES
18 | ≤ 100 nM | COc1ccc(C(=O)CCCCC(=O)N[C@H](CN2CCCC2)[C@H](O)c2ccc(OC)c(Cl)c2)cc1 [Compound 709]
19 | ≤ 100 nM | COc1ccc(OCCC(=O)N[C@H](CN2CCCC2)[C@H](O)c2ccc(OC)c(Cl)c2)cc1 [Compound 711]
20 | 100 to 1000 nM | COCCOCCOc1ccc([C@@H](O)[C@@H](CN2CCCC2)NC(=O)CCOc2ccc(OC)cc2)cc1 [Compound 713]
21 | 3000 to 10000 nM | COCCOc1ccc([C@@H](O)[C@@H](CN2CCCC2)NC(=O)CCOc2ccc(OC)cc2)cc1 [Compound 714]
22 | 100 to 1000 nM | CC(C)Oc1ccc([C@@H](O)[C@@H](CN2CCC(F)C2)NC(=O)CCOc2ccc(Cl)cc2)cc1 (stereo partly drawn) [Compound 725]
23 | ≤ 100 nM | CCCCCCOc1ccc([C@@H](O)[C@@H](CN2CCCC2)NC(=O)CCCOc2ccc(C(C)=O)cc2)cc1 [Compound 727]
24 | ≤ 100 nM | CCCCCCOc1ccc([C@@H](O)[C@@H](CN2CC[C@H](O)C2)NC(=O)CCCOc2ccc(OC)cc2)cc1 [Compound 728]
25 | ≤ 100 nM | CCCCCCOc1ccc([C@@H](O)[C@@H](CN2CC[C@H](O)C2)NC(=O)CCOc2ccc(Cl)cc2)cc1 [Compound 729]
26 | ≤ 100 nM | CCCCCCOc1ccc([C@@H](O)[C@@H](CN2CC[C@@H](F)C2)NC(=O)CCCOc2ccc(OC)cc2)cc1 [Compound 730]
27 | ≤ 100 nM | CCCCCCOc1ccc([C@@H](O)[C@@H](CN2CC[C@@H](F)C2)NC(=O)CCOc2ccc(Cl)cc2)cc1 [Compound 731]
28 | ≤ 100 nM | COc1ccc(OCCCC(=O)N[C@H](CN2CC[C@H](O)C2)[C@H](O)c2ccc(OC(C)C)cc2)cc1 [Compound 733]
29 | ≤ 100 nM | COc1ccc(OCCCC(=O)N[C@H](CN2CC[C@@H](F)C2)[C@H](O)c2ccc(OCCCCF)cc2)cc1 [Compound 734]
30 | ≤ 100 nM | COc1ccc(C(=O)CCCC(=O)N[C@H](CN2CC[C@@H](F)C2)[C@H](O)c2ccc(OCCCCF)cc2)cc1 [Compound 736]
31 | 100 to 1000 nM | COCCOc1ccc(C(=O)CCCC(=O)N[C@H](CN2CC[C@H](O)C2)[C@H](O)c2ccc(OC(C)C)cc2)cc1 [Compound 737]
32 | ≤ 100 nM | Cc1ccc(OCCC(=O)N[C@H](CN2CC[C@@H](F)C2)[C@H](O)c2ccc(OCCCCF)cc2)cc1 [Compound 739]
33 | ≤ 100 nM | COCCOc1ccc(C(=O)CCCCC(=O)N[C@H](CN2CC[C@H](O)C2)[C@H](O)c2ccc(OC(C)C)cc2)cc1 [Compound 740]

The next lines start with the compound.

Row | SMILES | IC50
34 | COc1ccc(C(=O)CCCCC(=O)N[C@H](CN2CCCC2)[C@H](O)c2ccc(-c3ccccc3)cc2)cc1 [Compound 694] | 100 to 1000 nM
35 | COc1ccc(OCCC(=O)N[C@H](CN2CCCC2)[C@H](O)c2ccc(-c3ccccc3)cc2)cc1 [Compound 695] | 100 to 1000 nM
36 | COc1ccc(C(=O)CCCC(=O)N[C@H](CN2CCCC2)[C@H](O)c2ccc(-c3ccccc3)cc2)cc1 [Compound 696] | 1000 to 3000 nM
37 | COc1ccc(OCCC(=O)N[C@H](CN2CCCC2)[C@H](O)c2ccccc2OC)cc1 [Compound 700] | 100 to 1000 nM
38 | COc1ccc(C(=O)CCCC(=O)N[C@H](CN2CCCC2)[C@H](O)c2ccccc2OC)cc1 [Compound 701] | 1000 to 3000 nM
39 | O=C(Cc1ccc(OC(F)(F)F)cc1)N[C@H](CN1CCCC1)[C@H](O)c1ccc(OCc2ccccc2)cc1 [Compound 702] | ≤ 100 nM
40 | COc1ccc(OCCC(=O)N[C@H](CN2CCCC2)[C@H](O)c2ccc(OCc3ccccc3)cc2)cc1 [Compound 705] | ≤ 100 nM
41 | COc1ccc(C(=O)CCCCC(=O)N[C@H](CN2CCCC2)[C@H](O)c2ccc(OCc3ccccc3)cc2)cc1 [Compound 706] | ≤ 100 nM
42 | COc1ccc([C@@H](O)[C@@H](CN2CCCC2)NC(=O)Cc2ccc(OC(F)(F)F)cc2)cc1Cl [Compound 710] | ≤ 100 nM
43 | COc1ccc(OCCC(=O)N[C@H](CN2CCCC2)[C@H](O)c2ccc(O)cc2)cc1 [Compound 712] | 100 to 1000 nM
44 | COc1ccc(OCCC(=O)N(CC(=O)c2ccc(OC)cc2)[C@H](CN2CCCC2)[C@H](O)c2ccc(O)cc2)cc1 [Compound 715] | 3000 to 10000 nM
45 | COc1ccc(OCCC(=O)N(Cc2ccccn2)[C@H](CN2CCCC2)[C@H](O)c2ccc(O)cc2)cc1 [Compound 716] | 3000 to 10000 nM
46 | COc1ccc(OCCC(=O)N(Cc2nc3ccccc3s2)[C@H](CN2CCCC2)[C@H](O)c2ccc(O)cc2)cc1 [Compound 717] | 3000 to 10000 nM
47 | COc1ccc(OCCC(=O)N(Cc2cccc(-c3noc(C)n3)c2)[C@H](CN2CCCC2)[C@H](O)c2ccc(O)cc2)cc1 [Compound 718] | 3000 to 10000 nM
48 | COc1ccc(OCCC(=O)N(Cc2cccc3ccncc23)[C@H](CN2CCCC2)[C@H](O)c2ccc(O)cc2)cc1 [Compound 719] | 3000 to 10000 nM
49 | COc1ccc(OCCC(=O)N(Cc2ccc(-c3noc(C)n3)cc2)[C@H](CN2CCCC2)[C@H](O)c2ccc(O)cc2)cc1 [Compound 720] | 3000 to 10000 nM
50 | COc1ccc(OCCC(=O)N(Cc2ccc(-c3nc(C)no3)cc2)[C@H](CN2CCCC2)[C@H](O)c2ccc(O)cc2)cc1 [Compound 721] | 3000 to 10000 nM
51 | COc1ccc(OCCC(=O)N[C@H](CN2CCCC2)[C@H](O)c2ccc(OCCOc3cccc(C)c3)cc2)cc1 [Compound 722] | ≤ 100 nM
52 | COc1ccc(OCCC(=O)N[C@H](CN2CCCC2)[C@H](O)c2ccc(OCCOc3ccc(Cl)cc3)cc2)cc1 [Compound 723] | ≤ 100 nM
53 | CC(=O)c1ccc(OCCCC(=O)N[C@H](CN2CCCC2)[C@H](O)c2ccc(OC(C)C)cc2)cc1 [Compound 724] | 100 to 1000 nM
54 | CC(C)Oc1ccc([C@@H](O)[C@@H](CN2CCC(F)C2)NC(=O)NCc2ccc(Cl)cc2)cc1 (stereo partly drawn) [Compound 726] | 100 to 1000 nM
55 | COc1ccc(C(=O)CCCC(=O)N[C@H](CN2CC[C@H](O)C2)[C@H](O)c2ccc(OC(C)C)cc2)cc1 [Compound 732] | 100 to 1000 nM
56 | O=C(NCc1ccc(Cl)cc1)N[C@H](CN1CC[C@@H](F)C1)[C@H](O)c1ccc(OCCCCF)cc1 [Compound 735] | ≤ 100 nM
57 | Cc1ccc(OCCC(=O)N[C@H](CN2CC[C@H](O)C2)[C@H](O)c2ccc(OC(C)C)cc2)cc1 [Compound 738] | ≤ 100 nM
